The target in the assay is T1, RET G691S (Homo sapiens, UniProt P07949, G691S).
T1 construct: purchased Thermo Fisher Scientific (Life Technologies) SelectScreen
Description: SelectScreen LanthaScreen. In kind it is binding. The conditions noted are these: read-out: % displacement. Put shortly:
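Percent values come from Thermo SelectScreen profiling of NU5455, combining activity and binding assays. CSF1R was run in Z'LYTE format at Km app ATP, and CAMK1 in Adapta format with ATP listed at 10.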
Background: In TR-FRET formats the signal depends on donor and acceptor labels being close together.

Consider one compound from publication PMC6934184, “Selective DNA-PKcs inhibition extends the therapeutic index of localized radiotherapy and chemotherapy” (The Journal of Clinical Investigation, 2019).

Each structure is given as a SMILES string.

T1 sequence (P07949 29-1114 G691S): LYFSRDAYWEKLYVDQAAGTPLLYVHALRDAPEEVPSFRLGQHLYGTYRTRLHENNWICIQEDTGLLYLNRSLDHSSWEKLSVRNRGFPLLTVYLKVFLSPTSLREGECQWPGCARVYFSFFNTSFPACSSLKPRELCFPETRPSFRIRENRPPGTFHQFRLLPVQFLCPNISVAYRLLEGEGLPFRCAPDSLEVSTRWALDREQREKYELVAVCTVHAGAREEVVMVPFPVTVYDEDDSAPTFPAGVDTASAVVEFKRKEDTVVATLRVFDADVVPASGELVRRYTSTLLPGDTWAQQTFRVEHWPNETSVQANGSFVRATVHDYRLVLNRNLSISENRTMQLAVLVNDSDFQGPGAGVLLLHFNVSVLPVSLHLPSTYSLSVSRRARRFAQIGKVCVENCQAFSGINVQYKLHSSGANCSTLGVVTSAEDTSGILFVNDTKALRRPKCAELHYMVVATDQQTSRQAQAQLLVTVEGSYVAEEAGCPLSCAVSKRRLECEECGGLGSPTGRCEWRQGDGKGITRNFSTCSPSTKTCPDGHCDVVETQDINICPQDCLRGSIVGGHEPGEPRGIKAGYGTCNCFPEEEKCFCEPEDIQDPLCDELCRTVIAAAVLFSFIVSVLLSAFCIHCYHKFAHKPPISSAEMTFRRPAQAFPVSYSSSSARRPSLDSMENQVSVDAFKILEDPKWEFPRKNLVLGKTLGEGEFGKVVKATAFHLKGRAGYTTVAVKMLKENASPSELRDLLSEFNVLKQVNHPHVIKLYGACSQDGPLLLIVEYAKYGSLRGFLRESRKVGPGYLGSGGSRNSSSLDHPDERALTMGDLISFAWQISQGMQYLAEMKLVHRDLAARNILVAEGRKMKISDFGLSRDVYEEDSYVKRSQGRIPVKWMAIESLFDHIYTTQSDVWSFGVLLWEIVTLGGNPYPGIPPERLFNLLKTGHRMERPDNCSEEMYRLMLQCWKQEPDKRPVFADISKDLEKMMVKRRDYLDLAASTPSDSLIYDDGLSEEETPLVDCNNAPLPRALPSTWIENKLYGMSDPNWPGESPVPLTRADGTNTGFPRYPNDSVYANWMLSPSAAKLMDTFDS

On to `CN(C(=O)CN1CCOCC1)c1ccc2sc3c(-c4cccc5c(=O)cc(N6CC7CCC(C6)O7)oc45)cccc3c2c1` [NU5455], for which the inhibition at 1 µM is -1.8%.
